Where “and” joins values, the source holds several entries; their conditions need not be identical. Identical values can stand only once.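 Following 48 hours of exposure in 96-well plates, responses at five concentrations were used to interpolate endpoints linearly. GI50 = concentration required for 50% inhibition of growth. TGI denotes the concentration required for complete inhibition of growth.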

Among the test systems are SF-268 CNS; OVCAR-8 ovarian; UACC-62 melanoma; U251 CNS; NCI-H23 lung; SR leukemia; SK-MEL-2 melanoma; NCI-H226 lung; CCRF-CEM leukemia; SNB-78 CNS.
Common to all, as to assay: DTP human tumour cell line panel, 48 h

As to `Cc1ccc(-n2nc(C(C)(C)C)cc2NC(=O)NCc2cc(F)ccc2Oc2ccc3c(cnn3CCO)c2)cc1`, the GI50 with SF-268 CNS is > 10 µM and 4.61 µM; in the experiment on OVCAR-8 ovarian, > 10 µM and 8.96 µM; in the experiment with UACC-62 melanoma, 0.667 µM; in the experiment on U251 CNS, > 10 µM and 7.01 µM; in the experiment on NCI-H23 lung it was 5.6 µM and 6.17 µM; in the experiment with SR leukemia, > 10 µM and 1.12 µM. Further, the GI50 in the experiment with SK-MEL-2 melanoma was 2.98 µM and 4.42 µM; in the experiment with NCI-H226 lung, 562 nM and 2750 nM; with CCRF-CEM leukemia, > 10 µM and 3.38 µM. In addition, the TGI in the experiment with SF-268 CNS was more than 100 µM; with OVCAR-8 ovarian it was more than 100 µM; in the experiment with UACC-62 melanoma, more than 39.8 µM; with U251 CNS it was more than 100 µM; in the experiment with NCI-H23 lung it was more than 85.3 µM; in the experiment with SR leukemia, > 10 µM and 4.33 µM. For the same compound, the TGI is > 10 µM and 13 µM in the experiment on SK-MEL-2 melanoma; more than 100 µM in the experiment with NCI-H226 lung; more than 69.7 µM in the experiment on CCRF-CEM leukemia.
As for `CCn1c(-c2nonc2N)nc2ccncc21`, the GI50 in the experiment with SF-268 CNS, with OVCAR-8 ovarian, in the experiment on UACC-62 melanoma, in the experiment on U251 CNS, with NCI-H23 lung and with SR leukemia was more than 25 µM throughout. Besides, the GI50 in the experiment on SK-MEL-2 melanoma is more than 25 µM; in the experiment on NCI-H226 lung, more than 25000 nM; with CCRF-CEM leukemia, more than 25 µM. Moreover, the TGI in the experiment on SF-268 CNS, with OVCAR-8 ovarian, in the experiment with UACC-62 melanoma, in the experiment with U251 CNS, in the experiment with NCI-H23 lung and in the experiment on SR leukemia was more than 25 µM throughout. The TGI in the experiment with SK-MEL-2 melanoma, in the experiment with NCI-H226 lung and with CCRF-CEM leukemia was more than 25 µM throughout.
Turning to `COc1ccc2c(NCCCCCCNc3c4ccccc4nc4cc(OC)ccc34)c3ccccc3nc2c1`, the concentration for total growth inhibition (TGI) stood at 12.5 µM with SF-268 CNS; 11 µM in the experiment on OVCAR-8 ovarian; 1.59 µM in the experiment on UACC-62 melanoma; 1.47 µM with U251 CNS; 0.819 µM in the experiment on NCI-H23 lung; 1.54 µM in the experiment on SR leukemia. The results for the TGI with SK-MEL-2 melanoma, in the experiment with NCI-H226 lung and with CCRF-CEM leukemia were 1.67 µM, 3.49 µM and 0.549 µM, respectively.
Consider `COc1c(O)c(OC)c2oc(-c3ccc(O)cc3)c(OC)c(=O)c2c1O`, for which the TGI in the experiment on SF-268 CNS is 34.1 µM; in the experiment on OVCAR-8 ovarian, more than 100 µM; with UACC-62 melanoma, more than 100 µM; in the experiment on U251 CNS, more than 100 µM; in the experiment with NCI-H23 lung, more than 100 µM; in the experiment with SR leukemia it was more than 100 µM. The TGI in the experiment with SK-MEL-2 melanoma, in the experiment with NCI-H226 lung and in the experiment on CCRF-CEM leukemia was more than 100 µM in each case.
For the compound `COc1ccc(F)c(F)c1C(=O)c1cnc(NC2CCN(S(C)(=O)=O)CC2)nc1N`, the GI50 with SF-268 CNS is 1.14 µM and 0.527 µM; in the experiment on OVCAR-8 ovarian, 1.18 µM and 0.58 µM; in the experiment on UACC-62 melanoma it was 0.655 µM and 0.284 µM; with U251 CNS it was 0.484 µM and 0.371 µM; with NCI-H23 lung it was 0.814 µM and 0.397 µM; in the experiment on SR leukemia, 0.188 µM and 0.114 µM. Also, the GI50 in the experiment on SK-MEL-2 melanoma was 1.07 µM and 1.15 µM; in the experiment on NCI-H226 lung it was 1280 nM and 408 nM; in the experiment with CCRF-CEM leukemia, 0.431 µM and 0.237 µM. The TGI with SF-268 CNS is 7.16 µM and > 7.59 µM; in the experiment on OVCAR-8 ovarian, more than 100 µM; in the experiment on UACC-62 melanoma it was 2.77 µM and 2.45 µM; with U251 CNS it was more than 100 µM; in the experiment on NCI-H23 lung, 5.28 µM and 3.3 µM; in the experiment on SK-MEL-2 melanoma, 2.96 µM and 3.48 µM. The TGI in the experiment with NCI-H226 lung is more than 24.4 µM; with CCRF-CEM leukemia, more than 8.34 µM.
For the compound `CCOC(=O)C1(Cc2ccc3ccccc3c2)CCCCC(=O)N1` (stereo unspecified), the total growth inhibition concentration (TGI) in the experiment on SF-268 CNS, in the experiment with OVCAR-8 ovarian, in the experiment with UACC-62 melanoma, in the experiment on U251 CNS, in the experiment on NCI-H23 lung and in the experiment on CCRF-CEM leukemia was more than 100 µM each time. In the experiment with SNB-78 CNS, this compound returned a concentration for total growth inhibition (TGI) of more than 100 µM.
For the compound `CC(C)Oc1ccc(C(=O)Cn2ccnc2)cc1-n1c(CN2CCN(C(=O)COc3ccc(Cl)cc3)CC2)nc2ccccc2c1=O`, the GI50 was 12.9 µM in the experiment with SF-268 CNS; 15.5 µM in the experiment on OVCAR-8 ovarian; 12.8 µM with UACC-62 melanoma; 13.2 µM in the experiment with U251 CNS; 16.2 µM in the experiment on NCI-H23 lung; 5.64 µM in the experiment with SR leukemia. The GI50 was 17.6 µM in the experiment on SK-MEL-2 melanoma, 14500 nM in the experiment with NCI-H226 lung and 11 µM with CCRF-CEM leukemia. Further, the TGI in the experiment with SF-268 CNS was determined as 32.9 µM; with OVCAR-8 ovarian it was 53.2 µM; in the experiment on UACC-62 melanoma, 28.9 µM; with U251 CNS, 30.2 µM; with NCI-H23 lung, 37.7 µM; in the experiment with SR leukemia it was 36.8 µM. The figures for the TGI in the experiment with SK-MEL-2 melanoma, in the experiment with NCI-H226 lung and with CCRF-CEM leukemia were 38.5 µM, 38.9 µM and more than 100 µM, respectively.
As for `OCc1ccc(N2CCOCC2)cc1Cl`, the GI50 is more than 100 µM in the experiment on SF-268 CNS; more than 100 µM in the experiment on OVCAR-8 ovarian; 14.4 µM in the experiment with UACC-62 melanoma; more than 72.2 µM in the experiment on U251 CNS; more than 100 µM with NCI-H23 lung; more than 100 µM in the experiment with SR leukemia. Moreover, the GI50 in the experiment on SK-MEL-2 melanoma is more than 100 µM; with NCI-H226 lung it was 705 nM; with CCRF-CEM leukemia it was more than 100 µM. For the same compound, the TGI in the experiment on SF-268 CNS was more than 100 µM; with OVCAR-8 ovarian, more than 100 µM; with UACC-62 melanoma, more than 91.2 µM; in the experiment with U251 CNS it was more than 100 µM; with NCI-H23 lung it was more than 100 µM; in the experiment with SR leukemia, more than 100 µM. The concentration for total growth inhibition (TGI) was more than 100 µM with SK-MEL-2 melanoma, 2.37 µM in the experiment with NCI-H226 lung and more than 100 µM in the experiment on CCRF-CEM leukemia.
For `CC1OC(c2ccc3c(c2O)C(=O)C2=C(C3=O)C3(O)C(=O)CC(C)(O)CC3(O)C=C2)CC(O)C1O` (stereo unspecified), the TGI in the experiment on SF-268 CNS was more than 60 µM; in the experiment with OVCAR-8 ovarian, 51.5 µM; with UACC-62 melanoma it was 30.4 µM; in the experiment on U251 CNS, 31.4 µM; in the experiment with NCI-H23 lung, 45.6 µM; in the experiment with SR leukemia, 33.5 µM. In addition, the TGI came to 42.4 µM in the experiment with SK-MEL-2 melanoma, 49.8 µM in the experiment on NCI-H226 lung and 5.27 µM with CCRF-CEM leukemia.
Take `COc1ccc(C2=C(N3CCc4ccccc43)C(=O)NC2=O)cc1`: the GI50 was more than 25 µM with SF-268 CNS; more than 25 µM in the experiment on OVCAR-8 ovarian; more than 19.9 µM with UACC-62 melanoma; more than 25 µM in the experiment on U251 CNS; more than 25 µM in the experiment with NCI-H23 lung; 13.7 µM in the experiment with SR leukemia. Besides, the GI50 was more than 25 µM in the experiment with SK-MEL-2 melanoma, more than 25000 nM with NCI-H226 lung and 2.73 µM in the experiment with CCRF-CEM leukemia. Also, the TGI with SF-268 CNS, in the experiment on OVCAR-8 ovarian, in the experiment with UACC-62 melanoma, with U251 CNS, in the experiment with NCI-H23 lung and in the experiment on SR leukemia was more than 25 µM throughout. In addition, the TGI was more than 25 µM in the experiment with SK-MEL-2 melanoma, more than 25 µM with NCI-H226 lung and more than 11.7 µM with CCRF-CEM leukemia.

The term GI50 denotes the concentration at which growth is held to half of that of the control. Usually TGI stands for the concentration at which net growth stops. High values mean less potent growth arrest, low ones more potent growth arrest.

(Values after PubChem BioAssay (NCI).)
